According to ChEMBL document CHEMBL1201862, “PubChem BioAssay data set” (2004):
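Each compound was tested at five concentrations against cells in 96-well plates for 48 hours. Here, GI50 denotes the concentration required for 50% inhibition of growth.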 Active and inactive are the calls of the source. Cut-off read from the data, not from the text of the source: active = GI50 up to about 1.1 µM and inactive = higher.

What was measured:
Test in all cases: NCI-60 cell line screen, 48 h
SK-MEL-28 = system: SK-MEL-28
A498 = system: A498
SF-539 = system: SF-539
SR = system: SR
HOP-92 = system: HOP-92
MDA-N = system: MDA-N
EKVX = system: EKVX
OVCAR-4 = system: OVCAR-4
786-0 = system: 786-0
OVCAR-8 = system: OVCAR-8
NCI/ADR-RES = system: NCI/ADR-RES
OVCAR-5 = system: OVCAR-5
SF-268 = system: SF-268
UACC-62 = system: UACC-62
NCI-H226 = system: NCI-H226
BT-549 = system: BT-549
CCRF-CEM = system: CCRF-CEM
PC-3 = system: PC-3
MCF7 = system: MCF7
HCT-15 = system: HCT-15
OVCAR-3 = system: OVCAR-3
TK-10 = system: TK-10
KM12 = system: KM12
T47D = system: T47D
HCT-116 = system: HCT-116
ACHN = system: ACHN
MOLT-4 = system: MOLT-4
Malme-3M = system: Malme-3M
SNB-19 = system: SNB-19
U-251 = system: U-251
DU-145 = system: DU-145
NCI-H23 = system: NCI-H23
M14 = system: M14
IGROV-1 = system: IGROV-1
COLO 205 = system: COLO 205
HOP-62 = system: HOP-62
CAKI-1 = system: CAKI-1
SF-295 = system: SF-295
RXF 393 = system: RXF 393
SK-OV-3 = system: SK-OV-3
NCI-H522 = system: NCI-H522
HCC 2998 = system: HCC 2998
UO-31 = system: UO-31
SNB-75 = system: SNB-75
SN12C = system: SN12C
A549 = system: A549
K562 = system: K562
SW-620 = system: SW-620
MDA-MB-231 = system: MDA-MB-231
UACC-257 = system: UACC-257
MDA-MB-435 = system: MDA-MB-435
LOX IMVI = system: LOX IMVI
NCI-H460 = system: NCI-H460
HL-60 = system: HL-60
HT-29 = system: HT-29
SK-MEL-5 = system: SK-MEL-5
RPMI-8226 = system: RPMI-8226
SK-MEL-2 = system: SK-MEL-2

SMILES: Cn1c(=O)oc2cc(C(O)CN3CCN(Cc4ccccn4)CC3)c(Cl)cc21 (stereo not drawn)
- GI50 (SK-MEL-28): > 100 µM (inactive)
- GI50 (A498): > 100 µM (inactive)
- GI50 (SF-539): > 100 µM (inactive)
- GI50 (SR): 23.3 µM (inactive)
- GI50 (HOP-92): > 100 µM (inactive)
- GI50 (MDA-N): > 100 µM (inactive)
- GI50 (EKVX): > 100 µM (inactive)
- GI50 (OVCAR-4): > 100 µM (inactive)
- GI50 (786-0): > 100 µM (inactive)
- GI50 (OVCAR-8): > 100 µM (inactive)
- GI50 (NCI/ADR-RES): 0.461 µM (active)
- GI50 (OVCAR-5): > 100 µM (inactive)
- GI50 (SF-268): > 100 µM (inactive)
- GI50 (UACC-62): > 100 µM (inactive)
- GI50 (NCI-H226): > 100 µM (inactive)
- GI50 (BT-549): > 100 µM (inactive)
- GI50 (CCRF-CEM): > 100 µM (inactive)
- GI50 (PC-3): > 100 µM (inactive)
- GI50 (MCF7): > 100 µM (inactive)
- GI50 (HCT-15): > 100 µM
- GI50 (OVCAR-3): > 100 µM (inactive)
- GI50 (TK-10): > 100 µM (inactive)
- GI50 (KM12): > 100 µM (inactive)
- GI50 (T47D): > 100 µM (inactive)
- GI50 (HCT-116): > 100 µM (inactive)
- GI50 (ACHN): > 100 µM (inactive)
- GI50 (MOLT-4): > 100 µM (inactive)
- GI50 (Malme-3M): > 100 µM (inactive)
- GI50 (SNB-19): > 100 µM (inactive)
- GI50 (U-251): > 100 µM (inactive)
- GI50 (DU-145): > 100 µM (inactive)
- GI50 (NCI-H23): > 100 µM (inactive)
- GI50 (M14): > 100 µM (inactive)
- GI50 (IGROV-1): > 100 µM (inactive)
- GI50 (COLO 205): > 100 µM (inactive)
- GI50 (HOP-62): > 100 µM (inactive)
- GI50 (CAKI-1): > 100 µM (inactive)
- GI50 (SF-295): > 100 µM (inactive)
- GI50 (RXF 393): > 100 µM (inactive)
- GI50 (SK-OV-3): > 100 µM (inactive)
- GI50 (NCI-H522): > 100 µM (inactive)
- GI50 (HCC 2998): > 100 µM (inactive)
- GI50 (UO-31): > 100 µM (inactive)
- GI50 (SNB-75): 77.3 µM (inactive)
- GI50 (SN12C): > 100 µM (inactive)
- GI50 (A549): > 100 µM (inactive)
- GI50 (K562): > 100 µM (inactive)
- GI50 (SW-620): > 100 µM (inactive)
- GI50 (MDA-MB-231): > 100 µM (inactive)
- GI50 (UACC-257): > 100 µM (inactive)
- GI50 (MDA-MB-435): > 100 µM (inactive)
- GI50 (LOX IMVI): > 100 µM (inactive)
- GI50 (NCI-H460): > 100 µM (inactive)
- GI50 (HL-60): > 100 µM (inactive)
- GI50 (HT-29): > 100 µM (inactive)

SMILES: O=S(=O)(c1ccccc1)n1c(C(O)c2ccncc2)cc2ccccc21 (stereo not drawn)
- GI50 (SK-MEL-28): 55.1 µM (inactive)
- GI50 (A498): 38.7 µM (inactive)
- GI50 (SF-539): > 100 µM (inactive)
- GI50 (SR): 38.5 µM (inactive)
- GI50 (HOP-92): 27 µM (inactive)
- GI50 (MDA-N): 39.1 µM (inactive)
- GI50 (EKVX): 38.5 µM (inactive)
- GI50 (SK-MEL-5): 16.8 µM (inactive)
- GI50 (OVCAR-4): 31.8 µM (inactive)
- GI50 (786-0): 68.5 µM (inactive)
- GI50 (OVCAR-8): 50.6 µM (inactive)
- GI50 (NCI/ADR-RES): 35.2 µM (inactive)
- GI50 (OVCAR-5): > 100 µM (inactive)
- GI50 (UACC-62): 26.5 µM (inactive)
- GI50 (NCI-H226): 27 µM (inactive)
- GI50 (BT-549): 45.4 µM (inactive)
- GI50 (CCRF-CEM): 35.6 µM (inactive)
- GI50 (PC-3): 35.9 µM (inactive)
- GI50 (MCF7): 20.9 µM (inactive)
- GI50 (HCT-15): 33.7 µM
- GI50 (OVCAR-3): 46.8 µM (inactive)
- GI50 (TK-10): 28.4 µM (inactive)
- GI50 (KM12): 57.1 µM (inactive)
- GI50 (RPMI-8226): 27.1 µM (inactive)
- GI50 (T47D): 36 µM (inactive)
- GI50 (SK-MEL-2): 52.6 µM (inactive)
- GI50 (HCT-116): 43.1 µM (inactive)
- GI50 (ACHN): 37.7 µM (inactive)
- GI50 (MOLT-4): 23.7 µM (inactive)
- GI50 (SNB-19): 50 µM (inactive)
- GI50 (U-251): 41 µM (inactive)
- GI50 (DU-145): 40.5 µM (inactive)
- GI50 (NCI-H23): 44.7 µM (inactive)
- GI50 (M14): 32.7 µM (inactive)
- GI50 (IGROV-1): 39.2 µM (inactive)
- GI50 (COLO 205): 39.7 µM (inactive)
- GI50 (HOP-62): > 100 µM (inactive)
- GI50 (CAKI-1): 58.9 µM (inactive)
- GI50 (SF-295): 48.5 µM (inactive)
- GI50 (RXF 393): 48.2 µM (inactive)
- GI50 (SK-OV-3): 44.4 µM (inactive)
- GI50 (UO-31): 17.3 µM (inactive)
- GI50 (SNB-75): 34 µM (inactive)
- GI50 (SN12C): > 100 µM (inactive)
- GI50 (A549): 31.3 µM (inactive)
- GI50 (K562): 31.6 µM (inactive)
- GI50 (SW-620): 32 µM (inactive)
- GI50 (MDA-MB-231): 74.6 µM (inactive)
- GI50 (UACC-257): 10.7 µM (inactive)
- GI50 (MDA-MB-435): 36.3 µM (inactive)
- GI50 (LOX IMVI): 40.3 µM (inactive)
- GI50 (NCI-H460): 26.2 µM (inactive)
- GI50 (HT-29): 44.6 µM (inactive)

SMILES: CCCCN1C(=O)c2c(Br)sc(Br)c2C1=O
- GI50 (SK-MEL-28): 43.9 µM (inactive)
- GI50 (A498): 50.6 µM (inactive)
- GI50 (SF-539): 24.2 µM (inactive)
- GI50 (SR): 21.2 µM (inactive)
- GI50 (MDA-N): 33 µM (inactive)
- GI50 (EKVX): 70.1 µM (inactive)
- GI50 (SK-MEL-5): 39.5 µM (inactive)
- GI50 (OVCAR-4): 25.7 µM (inactive)
- GI50 (786-0): 37 µM (inactive)
- GI50 (OVCAR-8): 38.9 µM (inactive)
- GI50 (NCI/ADR-RES): 30.9 µM (inactive)
- GI50 (OVCAR-5): 30.4 µM (inactive)
- GI50 (SF-268): 31.8 µM (inactive)
- GI50 (UACC-62): 32.4 µM (inactive)
- GI50 (NCI-H226): 51.1 µM (inactive)
- GI50 (BT-549): 61.9 µM (inactive)
- GI50 (CCRF-CEM): 26.3 µM (inactive)
- GI50 (PC-3): 28.8 µM (inactive)
- GI50 (MCF7): 20.2 µM (inactive)
- GI50 (HCT-15): 25.7 µM
- GI50 (TK-10): 60 µM (inactive)
- GI50 (KM12): 25.1 µM (inactive)
- GI50 (RPMI-8226): 29.3 µM (inactive)
- GI50 (T47D): 57.7 µM (inactive)
- GI50 (SK-MEL-2): 46 µM (inactive)
- GI50 (HCT-116): 24.9 µM (inactive)
- GI50 (ACHN): 47.8 µM (inactive)
- GI50 (MOLT-4): 24.2 µM (inactive)
- GI50 (Malme-3M): 33.2 µM (inactive)
- GI50 (SNB-19): 51.5 µM (inactive)
- GI50 (U-251): 39.1 µM (inactive)
- GI50 (DU-145): 36.4 µM (inactive)
- GI50 (NCI-H23): 44.3 µM (inactive)
- GI50 (M14): 31.1 µM (inactive)
- GI50 (IGROV-1): 31.6 µM (inactive)
- GI50 (COLO 205): 19.5 µM (inactive)
- GI50 (HOP-62): 26.6 µM (inactive)
- GI50 (CAKI-1): 67.8 µM (inactive)
- GI50 (SF-295): 43.1 µM (inactive)
- GI50 (RXF 393): 52 µM (inactive)
- GI50 (SK-OV-3): 37.6 µM (inactive)
- GI50 (NCI-H522): 0.391 µM (active)
- GI50 (HCC 2998): 33.8 µM (inactive)
- GI50 (UO-31): 33.9 µM (inactive)
- GI50 (SNB-75): 29.5 µM (inactive)
- GI50 (SN12C): 34.5 µM (inactive)
- GI50 (A549): 25.8 µM (inactive)
- GI50 (K562): 30.5 µM (inactive)
- GI50 (SW-620): 24.8 µM (inactive)
- GI50 (MDA-MB-231): 26.9 µM (inactive)
- GI50 (UACC-257): 30.4 µM (inactive)
- GI50 (MDA-MB-435): 37.4 µM (inactive)
- GI50 (LOX IMVI): 32.6 µM (inactive)
- GI50 (NCI-H460): 31.6 µM (inactive)
- GI50 (HT-29): 23.3 µM (inactive)
